The values that follow come from PubChem BioAssay (NCI).

Among the test systems are M14 melanoma; NCI/ADR-RES ovarian; SF-539 CNS; MDA-MB-231 breast; RPMI-8226 leukemia; HCC-2998 colon; T-47D breast; SF-295 CNS; HOP-92 NSCLC; SW-620 colon.
What all share (assay): inhibition of tumour cell growth, NCI panel, 48 h

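Values below derive from 48-hour exposures of cells grown in 96-well plates, with endpoints linearly interpolated between the two concentrations bracketing the appropriate inhibition level. The concentration for 50% growth inhibition is given as GI50. TGI is the concentration that stops growth completely.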

As for `O=[N+]([O-])c1ccc2c(c1)C(c1ccccc1Cl)=Nc1c(n[nH]c1-c1cccnc1)N2`, the GI50 in the experiment on M14 melanoma, with NCI/ADR-RES ovarian, in the experiment on SF-539 CNS, in the experiment on MDA-MB-231 breast, with RPMI-8226 leukemia and with HCC-2998 colon was above 25 µM throughout. The GI50 in the experiment on T-47D breast, in the experiment on SF-295 CNS, in the experiment on HOP-92 NSCLC and in the experiment on SW-620 colon was above 25 µM each time. Besides, the TGI in the experiment with M14 melanoma, in the experiment on NCI/ADR-RES ovarian, in the experiment on SF-539 CNS, in the experiment with MDA-MB-231 breast, in the experiment with RPMI-8226 leukemia and in the experiment on HCC-2998 colon was above 25 µM in each case. In addition, the TGI in the experiment with T-47D breast, with SF-295 CNS, with HOP-92 NSCLC and in the experiment with SW-620 colon was above 25 µM throughout.
On to `CN(C)CCOc1ccccc1NC1=C(Cl)C(=O)C(Nc2ccccc2OCCN(C)C)=C(Cl)C1=O`, for which the GI50 with M14 melanoma was above 27 µM; in the experiment with NCI/ADR-RES ovarian, 24.6 µM; with SF-539 CNS, 16.4 µM; in the experiment with MDA-MB-231 breast, 2.21 µM; in the experiment on RPMI-8226 leukemia, above 100 µM; with HCC-2998 colon, 5.74 µM. The GI50 in the experiment on T-47D breast was 0.811 µM; in the experiment with SF-295 CNS, above 38.4 µM; in the experiment with HOP-92 NSCLC it was 1.45 µM; in the experiment with SW-620 colon it was 0.566 µM. For the same molecule, the TGI was above 84.6 µM in the experiment with M14 melanoma; above 100 µM in the experiment with NCI/ADR-RES ovarian; above 48.3 µM in the experiment with SF-539 CNS; 6.61 µM in the experiment on MDA-MB-231 breast; above 100 µM in the experiment on RPMI-8226 leukemia; above 21.6 µM with HCC-2998 colon. Further, the TGI in the experiment with T-47D breast was 3.16 µM; in the experiment on SF-295 CNS it was above 65.9 µM; with HOP-92 NSCLC, 3.07 µM; in the experiment with SW-620 colon, 1.24 µM.
Turning to `O=c1oc2ccc(Br)cc2c(=O)n1-c1ccc(Cl)cc1F`, the GI50 in the experiment on M14 melanoma is 0.925 µM; in the experiment on NCI/ADR-RES ovarian, 1.41 µM; in the experiment with SF-539 CNS it was 0.854 µM; in the experiment on MDA-MB-231 breast, 0.897 µM; with RPMI-8226 leukemia, 0.446 µM; in the experiment on HCC-2998 colon, 2.68 µM. In addition, the GI50 was 0.597 µM in the experiment with T-47D breast, 1.78 µM with SF-295 CNS, 0.179 µM in the experiment with HOP-92 NSCLC and 1.84 µM in the experiment on SW-620 colon. The TGI with M14 melanoma was found to be 6.24 µM; in the experiment with NCI/ADR-RES ovarian, 6.95 µM; in the experiment with SF-539 CNS, 6.4 µM; with MDA-MB-231 breast, 5.99 µM; in the experiment on RPMI-8226 leukemia it was 2.97 µM; in the experiment with HCC-2998 colon, 9.53 µM. Also, the TGI was 5.65 µM with T-47D breast, 3.54 µM in the experiment on SF-295 CNS, 0.618 µM in the experiment on HOP-92 NSCLC and 11.2 µM in the experiment on SW-620 colon.
For the molecule `Cc1ccccc1C(C(=O)NC1CCCCC1)N(C(=O)CNc1ccc(C#N)cc1)c1cccc(F)c1` (stereo not given), the GI50 in the experiment with M14 melanoma is 80.9 µM; in the experiment with NCI/ADR-RES ovarian, 26.2 µM; with SF-539 CNS, 16.2 µM; in the experiment on MDA-MB-231 breast it was 12.4 µM; in the experiment on RPMI-8226 leukemia, above 100 µM; in the experiment on HCC-2998 colon it was above 100 µM. Further, the GI50 in the experiment with T-47D breast is 31.4 µM; with SF-295 CNS, 13.8 µM; in the experiment with HOP-92 NSCLC it was 8.65 µM; with SW-620 colon, above 100 µM. Also, the TGI is above 100 µM with M14 melanoma; above 100 µM in the experiment with NCI/ADR-RES ovarian; above 59.7 µM in the experiment on SF-539 CNS; 70.7 µM in the experiment with MDA-MB-231 breast; above 100 µM with RPMI-8226 leukemia; above 100 µM in the experiment with HCC-2998 colon. In addition, the TGI with T-47D breast was above 100 µM; with SF-295 CNS, 44.6 µM; in the experiment on HOP-92 NSCLC, 28.7 µM; in the experiment on SW-620 colon, above 100 µM.
With `Cn1c(=O)c(Oc2ccc(F)cc2F)cc2cnc(NC3CCOCC3)nc21`, the GI50 in the experiment with M14 melanoma is above 25 µM; in the experiment with NCI/ADR-RES ovarian it was above 25 µM; with SF-539 CNS it was above 25 µM; in the experiment on MDA-MB-231 breast, above 25 µM; with RPMI-8226 leukemia, above 21.1 µM; in the experiment with HCC-2998 colon it was above 25 µM. In addition, the GI50 was above 25 µM in the experiment with T-47D breast, above 25 µM in the experiment on SF-295 CNS, 0.601 µM with HOP-92 NSCLC and above 25 µM in the experiment with SW-620 colon. The TGI in the experiment with M14 melanoma, with NCI/ADR-RES ovarian, with SF-539 CNS, with MDA-MB-231 breast, in the experiment with RPMI-8226 leukemia and in the experiment on HCC-2998 colon was above 25 µM throughout. In addition, the TGI with T-47D breast was above 25 µM; with SF-295 CNS, above 25 µM; in the experiment with HOP-92 NSCLC it was 19.4 µM; in the experiment with SW-620 colon, above 25 µM.
As for `COc1cc(C2CC(=O)Nc3c2c(C)nn3-c2nc3ccccc3[nH]2)cc(OC)c1O` (stereo not given), the GI50 in the experiment with M14 melanoma is 2.12 µM; in the experiment on NCI/ADR-RES ovarian, 7.81 µM; in the experiment with SF-539 CNS, 3.1 µM; in the experiment on MDA-MB-231 breast, 2.98 µM; with RPMI-8226 leukemia, 3.07 µM; in the experiment on HCC-2998 colon it was 6.48 µM. Moreover, the GI50 was 3.45 µM in the experiment with T-47D breast, 1.33 µM in the experiment on SF-295 CNS, 2.8 µM in the experiment with HOP-92 NSCLC and 3.04 µM in the experiment with SW-620 colon. Also, the TGI is 5.53 µM in the experiment on M14 melanoma; above 78.2 µM in the experiment on NCI/ADR-RES ovarian; 13.5 µM in the experiment with SF-539 CNS; 8.15 µM in the experiment on MDA-MB-231 breast; 12.5 µM in the experiment with RPMI-8226 leukemia; 35.7 µM in the experiment on HCC-2998 colon. The TGI amounted to 16.9 µM in the experiment on T-47D breast, 3.71 µM with SF-295 CNS, 8.81 µM in the experiment on HOP-92 NSCLC and 17.4 µM in the experiment with SW-620 colon.
Regarding `NC(N)=Nc1ccc(/C=C2\C=Cc3ccccc32)cc1`, the GI50 with M14 melanoma is 2.05 µM; with NCI/ADR-RES ovarian, 4.54 µM; in the experiment with SF-539 CNS it was 3.66 µM; in the experiment on MDA-MB-231 breast, 1.71 µM; with RPMI-8226 leukemia, 3.18 µM; with HCC-2998 colon, 1.69 µM. Besides, the GI50 with T-47D breast was 2.48 µM; in the experiment with SF-295 CNS it was 7.28 µM; with HOP-92 NSCLC, 1.44 µM; in the experiment on SW-620 colon, 1.83 µM. Besides, the TGI in the experiment with M14 melanoma came to 5.44 µM; in the experiment on NCI/ADR-RES ovarian, 18.8 µM; in the experiment with SF-539 CNS, 9.66 µM; with MDA-MB-231 breast, 3.83 µM; with RPMI-8226 leukemia, 14.4 µM; in the experiment with HCC-2998 colon, 3.15 µM. Also, the TGI in the experiment on T-47D breast was 7.39 µM; in the experiment with SF-295 CNS, 24.6 µM; in the experiment with HOP-92 NSCLC it was 4.6 µM; in the experiment on SW-620 colon, 3.82 µM.
